Laboratory results from BindingDB's records for doi:10.1021/jm00157a007 (1987).

Target: Chymotrypsinogen A (Bos taurus) (UniProt P00766)
Experiment: In vitro binding affinity towards alpha-chymotrypsin from bovine pancreas.

How did the Ki turn out when `CCCCc1ccc(=O)oc1Cl` [5-Butyl-6-chloro-pyran-2-one] was run?
The Ki was 3.9 µM.

For `O=c1ccc(-c2ccccc2)co1` [5-Phenyl-pyran-2-one], which Ki is on record?
The Ki was 75 µM.

`O=c1oc(Cl)ccc1-c1ccccc1` [6-Chloro-3-phenyl-pyran-2-one] was tested. Which Ki did it give?
Its Ki is 0.27 µM.

With `CCc1ccc(=O)oc1Cl` [6-Chloro-5-ethyl-pyran-2-one] as the compound, how does the Ki read?
Its Ki is 5.6 µM.

With `O=c1ccc(-c2ccccc2)c(Cl)o1` [6-Chloro-5-phenyl-pyran-2-one] as the compound, how does the Ki read?
Its Ki is 1.3 µM.
